Data: PMC11024869, “The activity of antimicrobial peptoids against multidrug-resistant ocular pathogens” (Contact lens & anterior eye : the journal of the British …, 2024)
≈ marks a conversion by molar mass, not a printed value. Non-standard residues stand in square brackets, D forms with d. Residues, ends and D or L forms follow the SMILES beside them. Nspe = C[C@H](NCC(=O)O)c1ccccc1; Nlys = NCCCCNCC(=O)O

How the values were obtained:
Type in all cases: cell-based
[1] = system: Pseudomonas aeruginosa PAO1; settings: PAO1, MHB
Source text: (§3) The S. pneumoniae strains used were SP04, SP06 and SP07 [46] and Streptococcus gallolyticus SV06 (all isolated from eyes of contact lens wearers during adverse events); P. aeruginosa PAO1 (which was originally isolated from a wound, and is an invasive strain containing the gene exoS) as well as isolates from microbial keratitis, PA 235 (invasive strain containing exoS), PA216 (a cytotoxic strain containing exoU), PA219 (cytotoxic strain containing exoU), PA 233 (cytotoxic strain containing exoU), with various susceptibilities to antibiotics were also used [14]. C. albicans ATCC 10231, a yeast, isolated from case of a human bronchomycosis, was also evaluated.
(§4) The peptoids’ minimum inhibitory and bactericidal concentrations (MIC and MBC) were determined using micro broth dilution methods as previously described with slight modifications, [26, 39, 49, 50], and without using acetic acid and bovine serum albumin [39]. Briefly, bacteria or yeast were suspended in Muller Hinton broth (MHB, Oxoid, Thermo Fisher Scientific, Thebarton, SA, Australia) at 0.1 OD660nm, which was equivalent to 1x10^8 colony forming units (CFU) mL^−1. This suspension was further diluted to achieve 5x10^6 CFU mL^−1. The peptoids were diluted in MHB from 250 to 0.24 μg mL^−1 in 96-well polystyrene microplates (COSTAR, Corning Incorporated, New York, NY, USA) [39]. […] This was followed by addition of 100 μL of each microbial suspensions. Wells with only bacteria or the yeast were treated as a negative control, and wells with only MHB medium were treated as a blank. The plates were incubated at 37 °C with shaking at 120 rpm for 24 h. After incubation, the media in each well was serially diluted in phosphate buffered solution and then inoculated onto tryptone soya agar (Oxoid) plates for bacteria, or Sabouraud’s dextrose agar for the yeast, and incubated at 37 °C for 18 hrs. Post incubation, the number of CFUs on the agar plates was counted.

[2] = system: Pseudomonas aeruginosa PA216; settings: PA216, MHB, 24 h 37 °C
Source text: as §3, §4

[3] = system: Pseudomonas aeruginosa PA219; settings: PA219, MHB, 24 h 37 °C
Source text: as §3, §4

[4] = system: Pseudomonas aeruginosa PA233; settings: PA233, MHB, 24 h 37 °C
Source text: All S. aureus strains used were isolated from cases of microbial keratitis (Table 1) with various susceptibilities to antibiotics. The S. pneumoniae strains used were SP04, SP06 and SP07 [46] and Streptococcus gallolyticus SV06 (all isolated from eyes of contact lens wearers during adverse events); P. aeruginosa PAO1 (which was originally isolated from a wound, and is an invasive strain containing the gene exoS) as well as isolates from microbial keratitis, PA 235 (invasive strain containing exoS), PA216 (a cytotoxic strain containing exoU), PA219 (cytotoxic strain containing exoU), PA 233 (cytotoxic strain containing exoU), with various susceptibilities to antibiotics were also used. C. albicans ATCC 10231, a yeast, isolated from case of a human bronchomycosis, was also evaluated.
The peptoids’ minimum inhibitory and bactericidal concentrations (MIC and MBC) were determined using micro broth dilution methods as previously described with slight modifications, [26, 39, 49, 50], and without using acetic acid and bovine serum albumin [39]. Briefly, bacteria or yeast were suspended in Muller Hinton broth (MHB, Oxoid, Thermo Fisher Scientific, Thebarton, SA, Australia) at 0.1 OD660nm, which was equivalent to 1x10^8 colony forming units (CFU) mL^−1. This suspension was further diluted to achieve 5x10^6 CFU mL^−1. The peptoids were diluted in MHB from 250 to 0.24 μg mL^−1 in 96-well polystyrene microplates (COSTAR, Corning Incorporated, New York, NY, USA). This range was selected to cover the range of MIC values previously reported for ESKAPE pathogens. This was followed by addition of 100 μL of each microbial suspensions. Wells with only bacteria or the yeast were treated as a negative control, and wells with only MHB medium were treated as a blank. The plates were incubated at 37 °C with shaking at 120 rpm for 24 h. After incubation, the media in each well was serially diluted in phosphate buffered solution and then inoculated onto tryptone soya agar (Oxoid) plates for bacteria, or Sabouraud’s dextrose agar for the yeast, and incubated at 37 °C for 18 hrs. Post incubation, the number of CFUs on the agar plates was counted.

[5] = system: Pseudomonas aeruginosa PA235; settings: PA235; MHB, 24 h 37 °C; ≥99.99 % reduction in CFUs
Source text: as §3, §4

[6] = system: Staphylococcus aureus SA34; settings: SA34, MHB, 24 h 37 °C
Source text: as §3, §4

[7] = system: Staphylococcus aureus SA65; settings: SA65, MHB, 24 h 37 °C
Source text: as §3, §4

[8] = system: Staphylococcus aureus SA113; settings: SA113, MHB, 24 h 37 °C
Source text: as §3, §4

[9] = system: Staphylococcus aureus SA114; settings: SA114, MHB, 24 h 37 °C
Source text: as §3, §4

[10] = system: Staphylococcus aureus SA117; settings: SA117, MHB, 24 h 37 °C
Source text: as §3, §4

[11] = system: Streptococcus pneumoniae SP04; settings: SP04, MHB, 24 h 37 °C
Source text: as §3, §4

[12] = system: Streptococcus pneumoniae SP06; settings: SP06, MHB, 24 h 37 °C
Source text: as §3, §4

[13] = system: Streptococcus pneumoniae SP07; settings: SP07, MHB, 24 h 37 °C
Source text: as §3, §4

[14] = system: Streptococcus gallolyticus SG04; settings: SG04, MHB, 24 h 37 °C
Source text: as §3, §4

[15] = system: viridans group streptococcus SV06; settings: SV06, MHB, 24 h 37 °C
Source text: as §3, §4

[16] = system: Candida albicans ATCC 10231; experiment: MIC/MBC (fungicidal) micro broth dilution; settings: ATCC 10231 (yeast); MHB, 24 h 37 °C; ≥99.99 % reduction in CFUs
Source text: as §3, §4

horse erythrocytes = experiment: In vitro assay for hemolysis, horse blood
Experimental: (§1) Hemolysis caused by the peptoids was measured using 18 to 20 mL of a horse or human blood collected in EDTA-coated tubes which has been centrifuged at 500×g for 5 min. The supernatant was discarded and the pellet containing the cells were resuspended in PBS to a final volume of 20 mL. This step was repeated five times. After the final wash, the pellet was resuspended in PBS at the ratio of 1:10 (1 mL red blood cell: 9 mL PBS) to yield a final red blood cell (RBC) concentration of approximately 5 × 10^8 cells mL^−1. The concentration of RBCs was confirmed using a hemocytometer. The peptoids (stock concentration 2 mM) were diluted sequentially (two-fold dilutions) in PBS to final concentrations of […]. All the dilutions were subsequently mixed with the RBC suspension at the ratio of 1:1. MilliQ water was used as a positive control and PBS was used as a negative control in this assay. All samples were incubated at 37 °C for 3 h. Following incubation, the tubes were centrifuged at 500 x g for five mins, the supernatants were collected, transferred to wells in a 96 well plate and their optical density was measured at 540 nm. The percentage of hemolysis was calculated by dividing the absorbance of the test sample by the absorbance of the positive control, and multiplying by 100. Data are presented as the hemolysis caused by each dilution of peptoid, and as the concentration of peptoid that caused 10 % or 50 % lysis of red blood cells.
(§2) The geometric mean is the nth root of the multiplied numbers, where n is the total number of data values. A similar formula was used to calculate the selectivity ratio, but by using the concentration of peptoid that caused 10 % hemolysis.

human erythrocytes = experiment: In vitro assay for hemolysis, human blood
Experimental: as §1, §2

Work on C[C@@H](c1ccccc1)N(CC(N)=O)C(=O)CN(C(=O)CN(CCCCN)C(=O)CN(C(=O)CN(C(=O)CN(CCCCN)C(=O)CN(C(=O)CN(C(=O)CN(CCCCN)C(=O)CN(C(=O)CN(C(=O)CNCCCCN)[C@@H](C)c1ccccc1)[C@@H](C)c1ccccc1)[C@@H](C)c1ccccc1)[C@@H](C)c1ccccc1)[C@@H](C)c1ccccc1)[C@@H](C)c1ccccc1)[C@@H](C)c1ccccc1 [TM1] (H-[Nlys][Nspe][Nspe][Nlys][Nspe][Nspe][Nlys][Nspe][Nspe][Nlys][Nspe][Nspe]-NH2) yielded an MIC ([1]; 5x10^6 CFU mL^−1, 24 h 37 °C, ≥90 % reduction in CFUs) of 7.8 µg/mL (≈ 4.29 µM), an MBC ([1]; 24 h 37 °C, ≥99.99 % reduction in CFUs) of 15 µg/mL (≈ 8.24 µM) and an MIC ([2]; ≥90 % reduction in CFUs) of 15 µg/mL (≈ 8.24 µM). It also gave an MBC ([2]; ≥99.99 % reduction in CFUs) of 31 µg/mL (≈ 17 µM), an MIC ([3]; ≥90 % reduction in CFUs) of 15 µg/mL (≈ 8.24 µM) and an MBC ([3]; ≥99.99 % reduction in CFUs) of 31 µg/mL (≈ 17 µM). The MIC ([4]; ≥90 % reduction in CFUs) was 15(8.6)/15(8.6) μg mL^−1, the MBC ([4]; ≥99.99 % reduction in CFUs) was 15(8.6)/15(8.6) μg mL^−1 and the MBC [5] was 31(17)/31(17) μg mL^−1. The MIC ([6]; ≥90 % reduction in CFUs) was 7.8 µg/mL (≈ 4.29 µM), the MBC ([6]; ≥99.99 % reduction in CFUs) was 15 µg/mL (≈ 8.24 µM) and the MIC ([7]; ≥90 % reduction in CFUs) was 3.9(2.2)/3.9(2.2) μg mL^−1. The MBC ([7]; ≥99.99 % reduction in CFUs) was 3.9(2.2)/3.9(2.2) μg mL^−1, the MIC ([8]; ≥90 % reduction in CFUs) was 3.9 µg/mL (≈ 2.14 µM) and the MBC ([8]; ≥99.99 % reduction in CFUs) was 7.8 µg/mL (≈ 4.29 µM). For the same molecule, the MIC ([9]; ≥90 % reduction in CFUs) was 7.8(4.3)/7.8(4.3) μg mL^−1, the MBC ([9]; ≥99.99 % reduction in CFUs) was 7.8(4.3)/7.8(4.3) μg mL^−1 and the MIC ([10]; ≥90 % reduction in CFUs) was 7.8 µg/mL (≈ 4.29 µM). For the same molecule, the MBC ([10]; ≥99.99 % reduction in CFUs) was 15 µg/mL (≈ 8.24 µM), the MIC ([11]; ≥90 % reduction in CFUs) was 1.9(1.1)/1.9(1.1) μg mL^−1 and the MBC ([11]; ≥99.99 % reduction in CFUs) was 1.9(1.1)/1.9(1.1) μg mL^−1. The MIC ([12]; ≥90 % reduction in CFUs) was 3.9 µg/mL (≈ 2.14 µM), the MBC ([12]; ≥99.99 % reduction in CFUs) was 7.8 µg/mL (≈ 4.29 µM) and the MIC ([13]; ≥90 % reduction in CFUs) was 15(8.6)/15(8.6) μg mL^−1. For the same molecule, the MBC ([13]; ≥99.99 % reduction in CFUs) was 15(8.6)/15(8.6) μg mL^−1, the MIC ([14]; ≥90 % reduction in CFUs) was 3.9 µg/mL (≈ 2.14 µM) and the MBC ([14]; ≥99.99 % reduction in CFUs) was 7.8 µg/mL (≈ 4.29 µM). For the same molecule, the MIC ([15]; ≥90 % reduction in CFUs) was 3.9 µg/mL (≈ 2.14 µM), the MBC ([15]; ≥99.99 % reduction in CFUs) was 7.8 µg/mL (≈ 4.29 µM) and the “MBC (minimum fungicidal concentration)” value [16] was 3.9(2.2)/3.9(2.2) μg mL^−1. For the same molecule, the “Horse HC10” value (horse erythrocytes; concentration causing 10 % lysis of horse red blood cells, PBS, 3 h 37 °C, OD 540 nm) was 4 µM, the “Horse HC50” value (horse erythrocytes; concentration causing 50 % lysis of horse red blood cells, PBS, 3 h 37 °C, OD 540 nm) was 45 µM and the “SR horse blood (ratio HC10 to geometric mean MIC)” value (horse erythrocytes; selectivity ratio) was 1. For the same molecule, the “TI horse blood (ratio HC50 to geometric mean MIC)” value (horse erythrocytes; therapeutic index) was 11, the “Human HC10” value (human erythrocytes; concentration causing 10 % lysis of human red blood cells, PBS, 3 h 37 °C, OD 540 nm) was 8 µM and the “Human HC50” value (human erythrocytes; concentration causing 50 % lysis of human red blood cells, PBS, 3 h 37 °C, OD 540 nm) was 49 µM. The “SR human blood (ratio HC10 to geometric mean MIC)” value (human erythrocytes; selectivity ratio) was 2 and the “TI human blood (ratio HC50 to geometric mean MIC)” value (human erythrocytes; therapeutic index) was 12.
